Data taken from paper PMC6123649, “Structural basis for specific inhibition of the highly sensitive ShHTL7 receptor” (EMBO Reports, 2018).
Like-named read-outs stand apart in the source and are kept apart here.

How the values were obtained:
AtD14 [1] = molecular target: T1, AtD14 (Arabidopsis thaliana, UniProt Q9SQR3); assay: Intrinsic Triton fluorescence binding assay; settings: up to 5 μM of AtD14
T1 construct: made in house; host or cells: E. coli BL21 (DE3)
T1 sequence (Q9SQR3 1-267): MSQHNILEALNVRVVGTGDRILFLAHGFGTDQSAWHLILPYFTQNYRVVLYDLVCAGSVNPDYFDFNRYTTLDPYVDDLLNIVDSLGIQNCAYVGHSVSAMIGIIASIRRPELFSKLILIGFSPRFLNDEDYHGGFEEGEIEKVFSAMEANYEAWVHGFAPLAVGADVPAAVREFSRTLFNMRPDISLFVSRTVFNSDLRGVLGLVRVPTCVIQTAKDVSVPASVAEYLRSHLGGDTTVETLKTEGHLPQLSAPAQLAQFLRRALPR
Experimental: (§1) Triton X‐100 has an excitation and emission wavelength of 275 and 302 nm, respectively. ShHTL7, ShHTL7‐L143Y, AtD14, and OsD14 were incubated in 50 mM Tris–HCl pH 7.5, 150 mM NaCl, with or without 0.005% Tween‐20, at concentrations ranging from 10 μM to 1 nM (obtained using serial dilutions) with 154 nM of Triton X‐100 for 1–2 h, and fluorescence values were then measured by SpectraMax i3 (Molecular Devices) at excitation and detection wavelengths of 275 and 302 nm, respectively. […] Data were normalized to the background fluorescence from the protein to obtain the change in Triton X‐100 fluorescence intensity. To determine the K d, the changes in Triton X‐100 fluorescence intensity were plotted against the concentration of the protein using the single binding site model implemented in GraphPad (Prism 6).

OsD14 [2] = molecular target: T2, OsD14 (Oryza sativa subsp. japonica, UniProt Q10QA5); assay: Intrinsic Triton fluorescence binding assay; settings: up to 5 μM of OsD14
T2 construct: made in house; host or cells: E. coli BL21 (DE3)
T2 sequence (Q10QA5 1-318): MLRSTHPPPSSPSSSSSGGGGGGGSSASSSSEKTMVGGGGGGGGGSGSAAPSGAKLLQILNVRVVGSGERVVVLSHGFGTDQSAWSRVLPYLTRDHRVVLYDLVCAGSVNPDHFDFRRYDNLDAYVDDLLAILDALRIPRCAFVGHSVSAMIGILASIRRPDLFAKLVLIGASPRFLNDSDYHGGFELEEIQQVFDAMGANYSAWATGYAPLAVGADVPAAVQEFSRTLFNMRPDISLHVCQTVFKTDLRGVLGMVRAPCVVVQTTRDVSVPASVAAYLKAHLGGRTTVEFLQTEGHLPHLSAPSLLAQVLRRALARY
Experimental: as §1

ShHTL7 = molecular target: T3, ShHTL7 (Striga hermonthica, UniProt A0A0M3PNA2); assay: Intrinsic Triton fluorescence binding assay
T3 sequence (A0A0M3PNA2 1-271): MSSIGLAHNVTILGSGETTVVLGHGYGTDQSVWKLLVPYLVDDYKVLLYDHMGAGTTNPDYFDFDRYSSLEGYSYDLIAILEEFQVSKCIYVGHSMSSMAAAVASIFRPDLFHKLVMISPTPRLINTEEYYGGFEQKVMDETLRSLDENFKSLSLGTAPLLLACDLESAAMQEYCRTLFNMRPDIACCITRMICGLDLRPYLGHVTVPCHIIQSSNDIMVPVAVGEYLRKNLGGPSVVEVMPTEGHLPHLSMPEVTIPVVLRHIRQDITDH
Experimental: as §1

ShHTL7‐L143Y = assay: YLG hydrolysis assay; format: biochemical, Striga hermonthica
Experimental: In vitro YLG hydrolysis assays were performed using 3 μM of ShHTL7, ShHTL7‐L143Y, AtD14, and OsD14 in a reaction buffer (1× PBS) with 0.1% dimethyl sulfoxide (DMSO) in a 100 μl volume on a 96‐well black plate (Greiner). The fluorescent intensity was measured by SpectraMax i3 (Molecular Devices) using an excitation wavelength of 480 nm and a detection wavelength of 520 nm. ShHTL7, ShHTL7‐L143Y, AtD14, and OsD14 were mixed with Triton X‐100, using serial dilutions to cover the Triton X‐100 concentration range from 5 μM until 4.87 nM. Protein‐Triton mixes were pre‐incubated for 30 min. 1 μM YLG (Tokyo Chemical Industry Co. Ltd.) was then added, and the assay was incubated for 60 min. The change in fluorescence observed over the course of 1 h incubation of YLG in buffer without protein was subtracted from the data collected in the presence of protein. The resulting relative fluorescence values were analyzed. The inhibitory curves and IC50 values were plotted using GraphPad (Prism 6) four‐parameter logistic curve. The rate of YLG hydrolysis by ShHTL7 was recorded following the above method at 10‐min interval for 2 h.

AtD14 [3] = molecular target: T1, AtD14; assay: DSLS, aggregation temperature; format: binding; settings: up to 100 μM of Triton
Experimental: (§2) The specific aggregation temperature, T agg, at which ShHTL7, ShHTL7L143Y, AtD14, and OsD14 aggregated in the presence or absence of Triton X‐100, GR24, and PAA was measured using DSLS on the Stargazer system (Harbinger Biotechnology and Engineering Corporation, Markham, Canada). Protein samples at a concentration of 10 μM were overlaid with mineral oil in a clear bottom 384‐well black plate (Corning) and heated from 20 to 95°C at 1°C/min; light scattering was detected by a CCD camera every 0.5°C in the presence or absence of varying concentrations of Triton X‐100, GR24, and PAA yielding the difference in aggregation temperature at a particular concentration from apoproteins (ΔT agg). Data were normalized, and ΔT agg plotted against the Triton X‐100, GR24, and PAA concentration. Resulting data were plotted to determine the change in T agg of all proteins when bound to Triton X‐100, GR24, and PAA using GraphPad (Prism 6).

OsD14 [4] = molecular target: T2, OsD14; assay: DSLS, aggregation temperature; format: binding; settings: up to 100 μM of Triton
Experimental: as §2

Orobanche cumana = tested on: Orobanche cumana; parameters: method as in PMID 23915294; settings: concentrations above 0.001%; cited from earlier work

Triton X-100
change of Triton fluorescence in presence of protein (AtD14 [1]): did not change
change of Triton fluorescence in presence of protein (OsD14 [2]): did not change
Kd for the Triton-ShHTL7 association (ShHTL7; across methods and buffers (authors' reply in peer review file)): ~ 250 nM
Kd (ShHTL7; in the absence of Tween‐20, read-out: final Kd, intrinsic Triton fluorescence): 233 ± 30 nM
Kd (ShHTL7; wild-type ShHTL7, buffer with 0.005% Tween‐20, converged after 2.5 h of incubation, read-out: dissociation constant (Kd), intrinsic Triton fluorescence): 284 ± 22 nM
inhibition of hydrolysis activity of ShHTL7 L143Y (ShHTL7‐L143Y): did not inhibit
effect on T agg (AtD14 [3]): failed to affect
effect on T agg (OsD14 [4]): failed to affect
effect on seed germination (Orobanche cumana): hindered seed germination
